Data published in patent publication US11555036B2, “FGFR4 inhibitor, preparation method therefor and pharmaceutical use thereof” (Abbisko Therapeutics Co., Ltd., priority 2016, dated 2023).

What was measured:
FGFR4 = FGFR4 (Homo sapiens, UniProt P22455); experiment: FGFR4 Caliper Assay (in vitro biochemical kinase analysis of FGFR4); conditions: read-out: Enzymatic activity FGFR4 IC50
Outline: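 Kinase reaction at 30° C for 40 min in 50 mM HEPES pH 7.5, 16 mM MgCl2, 1 mM DTT, 0.6% DMSO, stopped with EDTA. Phosphorylated and unphosphorylated fluorescent peptides separated by Caliper microfluidic mobility shift. IC50 by non-linear regression of percent inhibition.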

[1] = tested on: Huh7 hepatocellular carcinoma cells; experiment: FGFR4 cell proliferation experiment, Cell Titer Glo (CTG); type: cell-based; conditions: HuH-7 cells, 3 days; for IC50: concentration leading to absolute half growth inhibition; for EC50: concentration leading to half maximal growth inhibition
Outline: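 Cells treated with 5-fold serial dilutions starting at 10 μM for 3 days at 37° C, 5% CO2. Proliferation/survival quantified as cellular ATP by CellTiter-Glo luminescence.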

Chain of FGFR4 (P22455 22-802): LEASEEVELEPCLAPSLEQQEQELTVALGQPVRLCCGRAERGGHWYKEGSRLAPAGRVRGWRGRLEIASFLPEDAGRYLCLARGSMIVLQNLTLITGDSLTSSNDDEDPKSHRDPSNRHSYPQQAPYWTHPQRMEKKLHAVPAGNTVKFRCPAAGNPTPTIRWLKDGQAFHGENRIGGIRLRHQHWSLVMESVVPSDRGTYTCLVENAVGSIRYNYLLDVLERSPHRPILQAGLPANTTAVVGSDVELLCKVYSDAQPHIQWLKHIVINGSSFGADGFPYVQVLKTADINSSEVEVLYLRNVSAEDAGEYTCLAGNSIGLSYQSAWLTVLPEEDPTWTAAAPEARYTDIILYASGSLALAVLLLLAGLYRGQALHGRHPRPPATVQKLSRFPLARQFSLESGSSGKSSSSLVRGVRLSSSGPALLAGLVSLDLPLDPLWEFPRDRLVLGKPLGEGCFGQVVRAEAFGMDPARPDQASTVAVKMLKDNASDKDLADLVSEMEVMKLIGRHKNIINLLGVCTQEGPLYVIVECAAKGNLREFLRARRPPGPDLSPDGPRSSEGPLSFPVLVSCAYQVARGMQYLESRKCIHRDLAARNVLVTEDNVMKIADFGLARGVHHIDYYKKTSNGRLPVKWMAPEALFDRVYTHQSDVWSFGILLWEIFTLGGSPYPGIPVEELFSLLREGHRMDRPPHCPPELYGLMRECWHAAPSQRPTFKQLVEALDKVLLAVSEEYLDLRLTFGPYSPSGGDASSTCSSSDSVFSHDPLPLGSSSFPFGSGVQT

| SMILES | IC50 (FGFR4) [nM] | IC50 ([1]; Homo sapiens, Huh-7, 72 h) [nM] | EC50 ([1]; Homo sapiens, Huh-7, 72 h) [nM] | IC50 [1] [nM] | EC50 [1] [nM] |
| --- | --- | --- | --- | --- | --- |
| C=CC(=O)N[C@H]1COC[C@H]1Nc1ncc2cc(-c3c(Cl)c(OC)cc(OC)c3Cl)nc(C3=CCOCC3)c2n1 [Example 756, N-((3R,4S)-4-((6-(2,6-dichloro-3,5-dimethoxyphenyl)-8-(3,6-dihydro-2H-pyran-4-yl)pyrido[3,4-d]pyrimidin-2-yl)amino)tetrahydrofuran-3-yl)acryl-amide] | 20.2 | 31 | 19 | – | – |
| C=CC(=O)N[C@H]1COC[C@H]1Nc1ncc2cc(-c3c(Cl)c(OC)cc(OC)c3Cl)nc(NCC(CO)(CO)CO)c2n1 [Example 758, N-((3R,4S)-4-((6-(2,6-dichloro-3,5-dimethoxypehnyl)-8-((3-hydroxy-2,2-bis(hydroxymethyl)propyl)amino)py-rido[3,4-d]pyrimidin-2-yl)amino)tetra-hydrofuran-3-yl)acrylamide] | 5.9 | 9.2 | 5.8 | – | – |
| C=CC(=O)N[C@H]1COC[C@H]1Nc1ncc2cc(-c3c(Cl)c(OC)cc(OC)c3Cl)nc(N3CC(CO)(CO)C3)c2n1 [Example 759, N-((3R,4S)-4-((8-(3,3-bis(hydroxy-methyl)azetidin-1-yl)-6-(2,6-dichloro-3,5-dimethoxyphenyl)pyrido[3,4-d]py-rimidin-2-yl)amino)tetrahydrofuran-3-yl)acrylamide] | 5.7 | 61.1 | 42.2 | – | – |
| C=CC(=O)N[C@H]1COC[C@H]1Nc1ncc2cc(-c3c(Cl)c(OC)cc(OC)c3Cl)nc(N3CCC(C)(O)C3)c2n1 (stereo partly drawn) [Example 760, N-((3R,4S)-4-((6-(2,6-dichloro-3,5-dimethoxyphenyl)-8-(3-hydroxy-3-methylpyrrolidin-1-yl)pyrido[3,4-d]py-rimidin-2-yl)amino)tetarhydrofuran-3-yl)acrylamide] | 2.9 | 6.7 | 5.5 | – | – |
| C=CC(=O)N[C@H]1COC[C@H]1Nc1ncc2cc(-c3cc(OC)cc(OC)c3Cl)nc(-c3cnn(C)c3)c2n1 [Example 761, N-((3R,4S)-4-((6-(2-chloro-3,5-dimeth-oxyphenyl)-8-(1-methyl-1H-pyrazol-4-yl)pyrido[3,4-d]pyrimidin-2-yl)ami-no)tetrahydrofuran-3-yl)acrylamide] | 14.3 | 51.8 | 20.7 | – | – |
| C=CC(=O)N[C@H]1COC[C@H]1Nc1ncc2cc(-c3c(Cl)c(OC)cc(OC)c3Cl)nc(N3CC4CC(C3)O4)c2n1 [Example 762, N-((3R,4S)-4-((8-(6-oxa-3-aza-bicyclo[3.1.1]heptan-3-yl)-6-(2,6-di-chloro-3,5-dimethoxyphenyl)pyrido[3,4-d]pyrimidin-2-yl)amino)tetrahydro-furan-3-yl)acrylamide] | 5.2 | 4.2 | 3.2 | – | – |
| C=CC(=O)N[C@H]1COC[C@H]1Nc1ncc2cc(-c3c(Cl)c(OC)cc(OC)c3Cl)nc(N3CC4CC3CO4)c2n1 (stereo partly drawn) [Example 763, N-((3R,4S)-4-((8-(2-oxa-5-azabicyclo[2.2.1]heptan-5-yl)-6-(2,6-dichloro-3,5-dimethoxyphenyl)py-rido[3,4-d]pyrimidin-2-yl)a-mino)tetrahydrofuran-3-yl)acrylamide] | 7.9 | 11.1 | 7.8 | – | – |
| C=CC(=O)N[C@H]1COC[C@H]1Nc1ncc2cc(-c3c(F)c(OC)cc(OC)c3F)nc(NC)c2n1 [Example 764, N-((3R,4S)-4-((6-(2,6-difluoro-3,5-dimethoxyphenyl)-8-(methylamino)py-rido[3,4-d]pyrimidin-2-yl)amino)tetra-hydrofuran-3-yl)acrylamide] | 7 | 60.4 | 49.4 | – | – |
| C=CC(=O)N[C@H]1COC[C@H]1Nc1ncc2cc(-c3c(Cl)c(OC)cc(OC)c3Cl)nc(N)c2n1 [Example 765, N-((3R,4S)-4-((8-amino-6-(2,6-di-chloro-3,5-dimethoxyphenyl)pyrido[3,4-d]pyrimidin-2-yl)amino)tetrahydro-furan-3-yl)acrylamide] | 158 | 656 | 421 | – | – |
| [2H]C([2H])([2H])Nc1nc(-c2c(Cl)c(OC([2H])([2H])[2H])cc(OC([2H])([2H])[2H])c2Cl)cc2cnc(N[C@@H]3COC[C@@H]3NC(=O)C=C)nc12 [Example 766, N-((3R,4S)-4-((6-(2,6-dichloro-3,5-bis(methoxy-d3)phenyl)-8-((methyl-d3)amino)pyrido[3,4-d]pyrimidin-2-yl)a-mino)tetrahydrofuran-3-yl)acrylamide] | 8.3 | 27.9 | 19.8 | – | – |
| C=CC(=O)N[C@H]1COC[C@H]1Nc1ncc2cc(-c3c(F)c(OC)cc(OC)c3F)nc(NCC)c2n1 [Example 767, N-((3R,4S)-4-((6-(2,6-difluoro-3,5-dimethoxyphenyl)-8-(ethylamino)pyri-do[3,4-d]pyrimidin-2-yl)amino)tetra-hydrofuran-3-yl)acrylamide] | 7 | 45.1 | 23.9 | – | – |
| C=CC(=O)N[C@H]1COC[C@H]1Nc1ncc2cc(-c3c(F)c(OC)cc(OC)c3F)nc(N3CC(F)(F)C3)c2n1 [Example 768, N-((3R,4S)-4-((6-(2,6-difluoro-3,5-dimethoxyphenyl)-8-(3,3-difluoro-azetidin-1-yl)pyrido[3,4-d]pyrimi-din-2-yl)amino)tetrahydro-furan-3-yl)acrylamide] | 4 | 12.5 | 9.9 | – | – |
| C=CC(=O)N[C@H]1COC[C@H]1Nc1ncc2cc(-c3c(F)c(OC)cc(OC)c3F)nc(N3CC4CC(C3)O4)c2n1 [Example 769, N-((3R,4S)-4-((8-(6-oxa-3-azabicyclo[3.1.1]heptan-3-yl)-6-(2,6-difluoro-3,5-dimethoxy-phenyl)pyrido[3,4-d]pyrimidin-2-yl)amino)tetrahydrofuran-3-yl)acrylamide] | 3.7 | 10 | 8.4 | – | – |
| C=CC(=O)N[C@H]1COC[C@H]1Nc1ncc2cc(-c3cccc(OC)c3F)nc(NC)c2n1 [Example 770, N-((3R,4S)-4-((6-(2-fluoro-3-meth-oxyphenyl)-8-(methylamino)pyrido[3,4-d]pyrimidin-2-yl)amino)tetrahydro-furan-3-yl)acrylamide] | 2410 | > 10000 | > 10000 | – | – |
| [2H]C([2H])([2H])Nc1nc(-c2c(Cl)c(OC)cc(OC)c2Cl)cc2cnc(N[C@@H]3COC[C@@H]3NC(=O)C=C)nc12 [Example 771, N-((3R,4S)-4-((6-(2,6-dichloro-3,5-dimethoxyphenyl)-8-((methyl-d3)ami-no)pyrido[3,4-d]pyrimidin-2-yl)ami-no)tetrahydrofuran-3-yl)acrylamide] | 7.9 | 32.3 | 25.5 | – | – |
| C=CC(=O)N[C@H]1COC[C@H]1Nc1ncc2cc(-c3c(F)c(OC)cc(OC)c3F)nc(N3CCC(C)(O)C3)c2n1 (stereo partly drawn) [Example 772, N-((3R,4S)-4-((6-(2,6-difluoro-3,5-dimethoxyphenyl)-8-(3-hydroxy-3-methylpyrrolidin-1-yl)pyrido[3,4-d]py-rimidin-2-l)amino)tetrahydrofuran-3-yl)acrylamide] | 2.9 | 8.1 | 6.8 | – | – |
| C=CC(=O)N[C@H]1COC[C@H]1Nc1ncc2cc(-c3c(F)c(OC)cc(OC)c3F)nc(N3CC(C)(O)C3)c2n1 [Example 773, N-((3R,4S)-4-((6-(2,6-difluoro-3,5-dimethoxyphenyl)-8-(3-hydroxy-3-meth-ylazetidin-1-yl)pyrido[3,4-d]py-rimidin-2-yl)amino)tetrahydrofuran-3-yl)acrylamide] | 1.8 | 2.3 | 2 | – | – |
| C=CC(=O)N[C@H]1COC[C@H]1Nc1ncc2cc(-c3c(F)c(OC)cc(OC)c3F)nc(N3CCC3)c2n1 [Example 774, N-((3R,4S)-4-((8-(azetidin-1-yl)-6-(2,6-difluoro-3,5-dimethoxyphenyl)py-rido[3,4-d]pyrimidin-2-yl)amino)tetra-hydrofuran-3-yl)acrylamide] | 3.2 | 8.8 | 6.9 | – | – |
| C=CC(=O)N[C@H]1CCOC[C@H]1Nc1ncc2cc(-c3c(F)c(OC)cc(OC)c3F)nc(N3CC(OC)C3)c2n1 [Example 775, N-((3S,4S)-3-((6-(2,6-difluoro-3,5-dimethoxyphenyl)-8-(3-methoxyazetidin-1-yl)pyrido[3,4-d]pyrimidin-2-yl)amino)tetrahydro-2H-pyran-4-yl)acrylamide] | 8.9 | 27.8 | 20.8 | – | – |
| C=CC(=O)N[C@H]1COC[C@H]1Nc1ncc2cc(-c3c(Cl)c(OC)cc(OC)c3Cl)nc(N3CC4(CCOCC4)C3)c2n1 [Example 776, N-((3R,4S)-4-((6-(2,6-dichloro-3,5-dimethoxyphenyl)-8-(7-oxa-2-azaspiro [3.5]nonan-2-yl)pyrido[3,4-d]pyrimi-din-2-yl)amino)tetrahydrofuran-3-yl)acrylamide] | 4.9 | – | – | 9.4 | 7.9 |
| C=CC(=O)N[C@H]1CCOC[C@H]1Nc1ncc2cc(-c3c(F)c(OC)cc(OC)c3F)nc(NC)c2n1 [Example 786, N-((3S,4S)-3-((6-(2,6-difluoro-3,5-dimethoxyphenyl)-8-(methylamino)py-rido[3,4-d]pyrimidin-2-yl)amino)tetra-hydro-2H-pyran-4-yl)acrylamide] | 17 | 47.6 | 38.4 | – | – |
| C=CC(=O)N[C@H]1CCOC[C@H]1Nc1ncc2cc(-c3c(F)c(OC)cc(OC)c3F)nc(NCC)c2n1 [Example 787, N-((3S,4S)-3-((6-(2,6-difluoro-3,5-dimethoxyphenyl)-8-(ethylamino)pyri-do[3,4-d]pyrimidin-2-yl)amino)tetra-hydro-2H-pyran-4-yl)acrylamide] | 45 | 103 | 86 | – | – |
